Results on 1 molecule are retold here after US20240408057A1, “Composition for preventing or treating cachexia and muscle loss” (METAFINES.CO.LTD., priority 2023, published 2024).

For experiment [1], the system named is MuRF1. Description: MuRF1 expression in mouse muscle tissue, CT26 cachexia model. The format is in vivo, Balb/c mice. The following applies: CT26 Balb/c cachexia model, 21 days; G4 PO 200 mpk, G5 IV 100 mpk, G6 IV 200 mpk; vs vehicle control G2.
In experiment [2] the test system is PDK-4. The following applies: CT26 Balb/c cachexia model, 21 days. The text has this:
The mice were sacrificed, and the skeletal muscle in the quadriceps was extracted during autopsy, and tissue was homogenized, and proteins were extracted through RIPA lysis buffer, followed by Western blot analysis.
(§1) In FIG. 47, each group represents the following.

For experiment [3], the system named is PDK-4. Nature of the experiment: PDK-4 expression (Western blot) in CCM-treated C2C12 myotubes. Type of experiment: cell-based, mouse. The method, then: (§2) C2C12 cell line was dispensed into a 6-well plate at 4.0×10^5 cells/well and cultured in DMEM medium containing 10% fetal bovine serum (FBS) under 37° C. and 5% CO2 conditions for one day. When the cell density reached about 80%, the medium was replaced with a differentiation medium and the cells were cultured for additional 3 days. […] After culturing for 72 hours, the cells were collected and analyzed for PDK-4, which is a target marker, by Western blot and the results are summarized in FIG. 6.
(§3) A C2C12 cell line was dispensed into a 6-well plate at 4.0×10^5 cells/well, and then cultured in DMEM medium containing 10% fetal bovine serum (FBS) under 37° C. and 5% CO2 conditions for one day. When the cell density reached about 80%, the medium was replaced with a differentiation medium and the cells were cultured for additional 3 days.
Subsequently, MuRF1, Atrogin1, MyHC, Myogenin (muscle markers) and Calpain 3, PDK-4, and GDF-15 (other target markers for muscle related disease) were analyzed using Western blot, and the relative expression levels for the markers are shown in FIGS. 26 and 28.

In a further experiment the test system is C2C12 myotube cells. Nature of the experiment: Myotube diameter (crystal violet, Image J) of CCM-treated C2C12 myotubes. The format is cell-based, mouse. Conditions: C2C12 myotubes + CCM 1:1, 72 hours. The method, then:
A C2C12 cell line was dispensed into a 6-well plate at 4.0×10^5 cells/well, and then cultured in DMEM medium containing 10% fetal bovine serum (FBS) under 37° C. and 5% CO2 conditions for one day. When the cell density reached about 80%, the medium was replaced with a differentiation medium and the cells were cultured for additional 3 days. […] The myotube diameter was measured using Image J from the above image, and the change in myotube cell diameter is summarized in FIG. 17B. A C2C12 cell line was dispensed into a 6-well plate at 4.0×10^5 cells/well, and then cultured in DMEM medium containing 10% fetal bovine serum (FBS) under 37° C. and 5% CO2 conditions for one day. When the cell density reached about 80%, the medium was replaced with a differentiation medium and the cells were cultured for additional 3 days. […] The myotube diameter was measured using Image J from the above images, and the changes in myotube cell diameter are summarized in FIG. 24B.

For experiment [4], the system named is Calpain 3. Nature of the experiment: Calpain 3 expression in mouse muscle tissue, CT26 cachexia model. The format is in vivo, Balb/c mice. The following applies: CT26 Balb/c cachexia model, 21 days, G6 IV 200 mpk.
From the text: as §1

A short description of a further experiment: Wire hanging test. Type of experiment: in vivo, Balb/c mice. Conditions: CT26 Balb/c cachexia model; G4 to G6; compared to G3 megestrol (positive control). Here is the method: Along with the above, a wire hanging test was performed once a week, and the animal was placed on top of a wire cage, and then turned the cage upside down and hung over the home cage, and the waiting time until the animal fell was recorded and summarized in FIG. 53B.

Experiment [5] concerns MyHC. Nature of the experiment: MyHC expression (Western blot) in CCM-treated C2C12 myotubes. Type of experiment: cell-based, mouse. The following applies: 72 hours, compared to other experimental groups (components alone and in combination). The method, then: (§4) A C2C12 cell line was dispensed into a 6-well plate at 4.0×10^5 cells/well, and then cultured in DMEM medium containing 10% fetal bovine serum (FBS) under 37° C. and 5% CO2 conditions for one day. When the cell density reached about 80%, the medium was replaced with a differentiation medium and the cells were cultured for additional 3 days. After confirming completion of differentiation of the cells, the cells were treated with a mixture, in which the differentiation medium and cancer-cell conditioned medium (CCM) were mixed at a 1:1 ratio, to form a control group, and simultaneously, a test group was set up by treating with the calcium salts of Preparation Examples 1 to 3 according to three predetermined concentrations.
as §3
On the technique in general: A western blot detects proteins with antibodies after separation by electrophoresis.

Experiment [6] has as its system MyHC. Nature of the experiment: MyHC expression in mouse muscle tissue, CT26 cachexia model. The following applies: CT26 Balb/c cachexia model, 21 days; G4 PO 200 mpk, G5 IV 100 mpk, G6 IV 200 mpk; vs vehicle control G2. Type of experiment: in vivo, Balb/c mice.
The nature of experiment [7]: Inhibition of weight loss in cancer cachexia animal model. The following applies: CT26 Balb/c cachexia model, G6 IV 200 mpk, p<0.05. Type of experiment: in vivo, Balb/c mice. From the text: In FIG. 49, each group represents the following.
Another experiment in a line: Rotarod-treadmill test. Type of experiment: in vivo, Balb/c mice. Conditions: CT26 Balb/c cachexia model; G6 IV 200 mpk. The method, then:
After the animal was carefully placed on a Rotarod-treadmill (JD-A-07RA5, B.S Technolab Inc., Korea), and the measurement was made for 300 seconds while increasing the rotation speed from 4 rpm to 40 rpm at regular intervals and, and the results are summarized in FIG. 53A.

Experiment [8] concerns Calpain 3. Nature of the experiment: Calpain 3 expression (Western blot) in CCM-treated C2C12 myotubes. The format is cell-based, mouse. The method, then: as §2
The experiment was performed in the same manner as in Experimental Example 3-1, except that Calpain 3 was analyzed as a target marker for Western blot, and the results are summarized in FIG. 7.
as §3

The subject of experiment [9] is MuRF1. Description: MuRF1 expression (Western blot) in CCM-treated C2C12 myotubes. Conditions: 72 hours, compared to other experimental groups (components alone and in combination). The format is cell-based, mouse. The method, then:
as §4, §3

Another experiment has as its system GDF-15. Nature of the experiment: GDF-15 expression (Western blot) in CCM-treated C2C12 myotubes. The following applies: C2C12 myotubes + CCM, 72 hours; comparison experiment with components alone and in combination. The format is cell-based, mouse. The method, then: as §2
The analysis was performed in the same manner as in Experimental Example 4-1 except for analyzing GDF-15 as a target marker for a Western blot, and the results are summarized in FIGS. 8 and 9.
The analysis was performed in the same manner as in Experimental Example 3-1 except for analyzing PDK-4 as a target marker for Western blot, and the results are summarized in FIGS. 10 and 11.
as §3

Where [10] appears, read: C2C12 myotubes, differentiation medium:CCM 1:1, 72 hours, three predetermined concentrations, vs CCM control.

Like-named read-outs stand apart in the source and are kept apart here.

On to `O=C([O-])C(Cl)Cl.O=C1OC(C(O)CO)C([O-])=C1O.[Ca+2]` (stereo not shown) [Preparation Example 1, calcium salts of ascorbic acid and dichloroacetic acid], for which the “expression level of MuRF1 in quadriceps” value in the experiment with MuRF1 [1] is “decrease in the expression levels”. The “expression level of PDK-4 in quadriceps” value with PDK-4 [2] (G4 PO 200 mpk, G5 IV 100 mpk, G6 IV 200 mpk, vs vehicle control G2) is on record as “decrease in the expression level”; in the experiment on PDK-4 [2] (G4 to G6, compared to G3 megestrol 125 mpk) it was “excellent effect of reducing the expression level”. For the same molecule, the “expression of PDK-4” value in the experiment with PDK-4 [3] (C2C12 myotubes + CCM, 72 hours, comparison experiment with components alone and in combination) was “inhibited”. Further, the “expression level of PDK-4” value with PDK-4 [3] (setting [10]) was “expression was inhibited”. Further, the “diameter of myotube cells” value in the experiment with C2C12 myotube cells (predetermined concentration, compared to CCM) was “increased the diameter up to a level similar to that of the normal control group (UCM)”. Also, in the experiment on C2C12 myotube cells (three predetermined concentrations), the “concentration from which the diameter reduction of myotubes was significantly inhibited” value was at least 10 µM. Also, the “expression level of Calpain 3 in quadriceps” value with Calpain 3 [4] (G4 PO 200 mpk, G5 IV 100 mpk, vs vehicle control G2) is recorded as “increase in the expression level”; in the experiment with Calpain 3 [4] (compared to G3 megestrol 125 mpk) it was “excellent effect of increasing the expression level”. In addition, the wire hanging test entry in “Wire hanging test” was “level similar”. The “expression of MyHC” value in the experiment with MyHC [5] is recorded as “excellent effect of inhibiting the decrease of expression”. The “expression level of MyHC in quadriceps” value in the experiment on MyHC [6] is “increase in the expression levels”. The “weight increase compared to G2” value is listed as “about 6%” in experiment [7] (17th day) and about 13% in experiment [7] (20th day). Moreover, the “Rotarod-treadmill test improvement compared to G2” value in “Rotarod-treadmill test” is “about 24%”. In addition, the “expression level of Calpain 3” value with Calpain 3 [8] (C2C12 myotubes + CCM, 72 hours, compared to other experimental groups (components alone and in combination)) was “higher expression level”; in the experiment with Calpain 3 [8] (setting [10]), “decrease in expression was inhibited”. The “expression of MuRF1” value with MuRF1 [9] is recorded as “excellent effect of inhibiting the increase of expression”. For the same molecule, the “expression of GDF-15” value in the experiment with GDF-15 is on record as “inhibited”.
